Data reported in US20190169221A1, “SUBSTITUTED NUCLEOSIDES, NUCLEOTIDES AND ANALOGS THEREOF” (Janssen BioPharma, Inc., priority 2016, published 2019).

Columns and labels:
[1] = tested on: Dengue virus type 2 strain New Guinea C (NG-C); experiment: Dengue viral assay (cytopathic effect, Huh-7.5 cells); format: cell-based; conditions: Huh7.5, Dengue virus type 2 (NG-C strain), read-out: Dengue NGC EC50
Description: (§1) The Dengue virus type 2 strain New Guinea C (NG-C) and the Dengue virus type 4 strain H241 were purchased from ATCC (Manassas, Va.; item numbers VR-1584 and VR-1490, respectively). The Zika virus strain MR766 was purchased from ATCC (item #VR-1838) and the Zika virus strain IbH 30656 was purchased from BEI Resources (Manassas, Va.; item number NR-500066). 24 h prior to dosing, Huh-7.5 cells were plated in 96 well plates at a density of 1.5×10^5/mL in DMEM medium supplemented with 10% fetal bovine serum, 1% HEPES buffer, 1% Penicillin/Streptomycin and 1% non-essential amino acids (all Mediatech, Manassas, Va.). At the day of infection, serially diluted compounds were added to cells and incubated for 24 h. After the end of the 24 h pre-incubation period, cells were infected with either Dengue virus type 2 NG-C, Dengue virus type 4 H241, Zika virus strain MR766 or Zika virus strain IbH 30656. The virus inoculum was selected to cause 80-90% cytopathic effect in four (Zika) to five (Dengue) days. Infected cells were incubated for four to five days at 37° C., 5% CO2. To develop the assay, 100 μL media was replaced with 100 μl CellTiter-Glo® reagent (Promega, Madison, Wis.) and incubated for 10 mins at R.T. Luminescence was measured on a Victor ×3 multi-label plate reader. Potential compound cytotoxicity was determined using uninfected parallel cultures.

[2] = tested on: Huh-7 cells containing the self-replicating, subgenomic HCV replicon; experiment: HCV replicon assay; format: cell-based; conditions: Hepatitis C virus; Huh-7 replicon cells, 72 h, luciferase
Zika virus = experiment: Zika viral assay (cytopathic effect, Huh-7.5 cells); format: cell-based; conditions: Huh7.5, read-out: Zika EC50
Description: as §1

Human rhinovirus 1B = experiment: Picornavirus / enterovirus assay, HRV 1B (HeLa-OHIO cells); format: cell-based; conditions: Rhinovirus A; HeLa-OHIO cells, 33° C.; read-out: HRV 1B EC50
Human rhinovirus 16 = experiment: Enterovirus assay, HRV 16 (HeLa-OHIO cells); format: cell-based; conditions: Rhinovirus A
Description: (§2) HeLa OHIO cells were purchased from Sigma Aldrich (St Louis, Mo.) and cultured in MEM with Glutamax (Gibco cat. #41090) supplemented with 10% FBS (Mediatech cat. #35-011-CV) and 1% penicillin/streptomycin (Mediatech cat. #30-002-CI), at 37° C. with 5% CO2. RD cells were purchased from ATCC (Manassas, Va.) and cultured in DMEM, supplemented with 10% FBS (Mediatech cat. #35-011-CV) and 1% penicillin/streptomycin (Mediatech cat. #30-002-CI), at 37° C. with 5% CO2. For […]68 and CVB3, HeLa-OHIO cells were plated at a density of 1.5×10^5 cells per mL (1.5×10^4 cells per well) in assay media (MEM without phenol red or L-glutamine (Gibco cat. #51200) supplemented with 1% FBS, 1% penicillin/streptomycin (Mediatech cat. #30-002-CI) and 1% Glutamax (Gibco cat. #35050)) in clear-bottom 96 well plates. For EV71, RD cells were plated at a density of 5×10^4 cells per mL (5000 cells per well) in assay media (DMEM supplemented with 2% FBS and 1% penicillin/streptomycin). After 24 h, media was removed and replaced with serially diluted compounds in assay media. […] After 2-6 days, cell viability was measured using CellTiter Glo Luminescent Cell Viability Assay (Promega cat. #G7572). […] Plates were incubated at R.T. for 5 mins, then luminescence was measured using a Perkin Elmer multilabel counter Victor3V. EC50 values were determined using XLFit.

Human rhinovirus 14 = experiment: Enterovirus assay, HRV 14 (HeLa-OHIO cells); format: cell-based; conditions: Rhinovirus B
Human rhinovirus 75 = experiment: Enterovirus assay, HRV 75 (HeLa-OHIO cells); format: cell-based; conditions: Rhinovirus A
Description: as §2

CVB3 = experiment: Enterovirus assay, CVB3 (HeLa-OHIO cells); format: cell-based, Coxsackie virus 3B; conditions: Enterovirus B, 37° C.
Description: as §2

EV71 = experiment: Enterovirus assay, EV71 (RD cells); format: cell-based; conditions: Enterovirus A, 37° C.
Description: HeLa OHIO cells were purchased from Sigma Aldrich (St Louis, Mo.) and cultured in MEM with Glutamax (Gibco cat. #41090) supplemented with 10% FBS (Mediatech cat. #35-011-CV) and 1% penicillin/streptomycin (Mediatech cat. #30-002-CI), at 37° C. with 5% CO2. RD cells were purchased from ATCC (Manassas, Va.) and cultured in DMEM, supplemented with 10% FBS (Mediatech cat. #35-011-CV) and 1% penicillin/streptomycin (Mediatech cat. #30-002-CI), at 37° C. with 5% CO2. For […]68 and CVB3, HeLa-OHIO cells were plated at a density of 1.5×10^5 cells per mL (1.5×10^4 cells per well) in assay media (MEM without phenol red or L-glutamine (Gibco cat. #51200) supplemented with 1% FBS, 1% penicillin/streptomycin (Mediatech cat. #30-002-CI) and 1% Glutamax (Gibco cat. #35050)) in clear-bottom 96 well plates. For EV71, RD cells were plated at a density of 5×10^4 cells per mL (5000 cells per well) in assay media (DMEM supplemented with 2% FBS and 1% penicillin/streptomycin). After 24 h, media was removed and replaced with serially diluted compounds in assay media. For EC50 measurements, cells were infected in 100 μL assay media with a virus inoculum sufficient to obtain to cause 80-90% cytopathic effect. After 2-6 days, cell viability was measured using CellTiter Glo Luminescent Cell Viability Assay (Promega cat. #G7572). Cells infected with EV-71, EV-68 and CVB3 were cultured at 37° C., while cells infected with hV1b, hV-16, hV-75 were cultured at 33° C. 100 μL media was removed from each well and 100 μL CellTiter Glo reagent was added. Plates were incubated at R.T. for 5 mins, then luminescence was measured using a Perkin Elmer multilabel counter Victor3V. EC50 values were determined using XLFit.

[3] = molecular target: human rhinovirus 16 polymerase (HRV16pol) (Human rhinovirus 16, UniProt Q82122); experiment: Picornavirus polymerase inhibition assay; format: biochemical; conditions: triphosphates, read-out: Viral Polymerase Inhibition IC50 Picornavirus
Chain of human rhinovirus 16 polymerase (HRV16pol) (Q82122 1694-2153 limits assumed): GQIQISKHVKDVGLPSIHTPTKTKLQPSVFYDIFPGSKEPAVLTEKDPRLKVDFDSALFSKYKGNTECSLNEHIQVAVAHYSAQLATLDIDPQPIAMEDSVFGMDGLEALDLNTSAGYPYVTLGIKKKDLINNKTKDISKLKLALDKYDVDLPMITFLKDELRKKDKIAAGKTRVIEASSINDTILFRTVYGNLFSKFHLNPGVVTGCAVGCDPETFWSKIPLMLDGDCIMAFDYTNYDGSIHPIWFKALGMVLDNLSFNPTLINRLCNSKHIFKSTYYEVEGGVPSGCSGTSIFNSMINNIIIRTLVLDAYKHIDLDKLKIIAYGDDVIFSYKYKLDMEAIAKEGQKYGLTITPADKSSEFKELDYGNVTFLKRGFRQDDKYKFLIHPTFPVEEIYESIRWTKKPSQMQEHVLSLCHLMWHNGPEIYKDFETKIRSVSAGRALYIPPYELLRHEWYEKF
Description: The enzyme activity of human rhinovirus 16 polymerase (HRV16pol) was measured as an incorporation of tritiated NMP into acid-insoluble RNA products. hV16pol assay reactions contained […] recombinant enzyme, 50 nM heteropolymeric RNA, about 0.5 μCi tritiated NTP, 0.1 mM of competing cold NTP, 40 mM Tris-HCl (pH 7.0), […] dithiothreitol and 0.5 mM MgCl2. Standard reactions were incubated for 2.5 h at 30° C., in the presence of increasing concentration of inhibitor. At the end of the reaction, RNA was precipitated with 10% TCA and acid-insoluble RNA products were filtered on a size exclusion 96-well plate. After washing of the plate, scintillation liquid was added and radiolabeled RNA products were detected using standard procedures with a Trilux Microbeta scintillation counter. The compound concentration at which the enzyme-catalyzed rate was reduced by 50% (IC50) was calculated by fitting the data to a non-linear regression (sigmoidal).

Dengue viral polymerase = Dengue viral polymerase (Dengue virus type 2, UniProt P14340); experiment: biochemical; conditions: triphosphates; read-out: Viral Polymerase Inhibition IC50 Dengue
NS5B-BK (Delta-21) = NS5B-BK (Delta-21) (Hepatitis C virus genotype 1b, UniProt P26663); experiment: biochemical; set-up: species or system HCV
Chain of NS5B-BK (Delta-21) (P26663 2420-2989 limits assumed): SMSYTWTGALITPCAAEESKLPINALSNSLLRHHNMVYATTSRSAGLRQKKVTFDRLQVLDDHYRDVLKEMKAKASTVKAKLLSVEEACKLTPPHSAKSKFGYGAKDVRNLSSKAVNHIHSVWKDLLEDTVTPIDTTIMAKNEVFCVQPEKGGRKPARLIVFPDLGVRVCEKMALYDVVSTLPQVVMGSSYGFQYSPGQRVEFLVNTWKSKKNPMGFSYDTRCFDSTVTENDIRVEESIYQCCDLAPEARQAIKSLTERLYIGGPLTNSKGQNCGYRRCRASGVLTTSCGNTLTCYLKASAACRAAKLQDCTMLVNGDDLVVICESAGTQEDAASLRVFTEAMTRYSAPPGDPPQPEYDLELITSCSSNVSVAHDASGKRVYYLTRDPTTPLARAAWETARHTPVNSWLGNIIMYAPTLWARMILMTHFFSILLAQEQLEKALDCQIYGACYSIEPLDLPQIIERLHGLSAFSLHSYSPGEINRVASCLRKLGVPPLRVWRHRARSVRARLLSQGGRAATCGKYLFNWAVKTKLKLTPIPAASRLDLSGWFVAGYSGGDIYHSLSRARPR

Q: What does the source list for `C#C[C@]1(O)[C@H](n2cnc3c(N)ncnc32)O[C@](F)(CO)[C@H]1O` [Compound 1, (2S,3S,4R,5R)-5-(6-amino-9H-purin-9-yl)-4-ethynyl-2-fluoro-2-(hydroxymethyl)tetrahydrofuran-3,4-diol]?
A: EC50 [1]: < 3000 nM; EC50 [2]: < 3 µM; EC50 (Zika virus): < 3000 nM; EC50 (Human rhinovirus 1B): < 3000 nM; EC50 (Human rhinovirus 16): < 3000 nM; EC50 (Human rhinovirus 14): < 3000 nM; EC50 (Human rhinovirus 75): < 3000 nM; EC50 (CVB3): < 3000 nM; EC50 (EV71): < 3000 nM

Q: For `C#C[C@]1(O)[C@H](n2cc(F)c3c(N)ncnc32)O[C@](F)(CO)[C@H]1O` [Compound 7, (2S,3S,4R,5R)-5-(4-amino-5-fluoro-7H-pyrrolo[2,3-d]pyrimidin-7-yl)-4-ethynyl-2-fluoro-2-(hydroxymethyl)tetrahydrofuran-3,4-diol], which EC50 [1] is on record?
A: The EC50 was less than 3000 nM.

Q: And the EC50 (Human rhinovirus 1B)?
A: Its EC50 is less than 3000 nM.

Q: And the EC50 (EV71)?
A: The EC50 was less than 3000 nM.

Q: With `C[C@]1(O)[C@H](n2cnc3c(N)ncnc32)O[C@](F)(CO)[C@H]1O` [Compound 13, (2S,3S,4R,5R)-5-(6-amino-9H-purin-9-yl)-2-fluoro-2-(hydroxymethyl)-4-methyltetrahydrofuran-3,4-diol] as the molecule, how does the EC50 [1] read?
A: Its EC50 is greater than 100000 nM.

Q: And the EC50 [2]?
A: The EC50 was 3 to 30 µM.

Q: And the EC50 (Human rhinovirus 1B)?
A: The EC50 was 3000 to 30000 nM.

Q: With `C[C@]1(F)[C@H](n2cnc3c(N)nc(N)nc32)O[C@](F)(CO)[C@H]1O` [Compound 15, (2S,3S,4R,5R)-5-(2,6-diamino-9H-purin-9-yl)-2,4-difluoro-2-(hydroxymethyl)-4-methyltetrahydrofuran-3-ol] as the molecule, how does the EC50 [1] read?
A: Its EC50 is greater than 100000 nM.

Q: What about the EC50 [2] of the same molecule?
A: Its EC50 is greater than 100 µM.

Q: What about the EC50 (Human rhinovirus 1B) of the same molecule?
A: Its EC50 is 30000 to 100000 nM.

Q: For `C#C[C@@]1(O)[C@H](O)[C@@H](CO)O[C@H]1c1ccc2c(N)ncnn12` [Compound 26, (2S,3R,4R,5R)-2-(4-aminopyrrolo[2,1-f][1,2,4]triazin-7-yl)-3-ethynyl-5-(hydroxymethyl)tetrahydrofuran-3,4-diol], which EC50 [1] is on record?
A: The EC50 was less than 3000 nM.

Q: And the EC50 (Human rhinovirus 1B)?
A: The EC50 was less than 3000 nM.

Q: And the EC50 (EV71)?
A: Its EC50 is less than 3000 nM.

Q: With `C#C[C@]1(OC(=O)C(C)C)[C@H](n2cnc3c(N)ncnc32)O[C@](F)(COC(=O)C(C)C)[C@H]1OC(=O)C(C)C` [Compound 43, (2S,3S,4R,5R)-5-(6-amino-9H-purin-9-yl)-4-ethynyl-2-fluoro-2-((isobutyryloxy)methyl)tetrahydrofuran-3,4-diylbis(2-methylpropanoate)] as the molecule, how does the EC50 [1] read?
A: The EC50 was less than 3000 nM.

Q: And the EC50 (Human rhinovirus 1B)?
A: The EC50 was less than 3000 nM.

Q: What about the EC50 (EV71) of the same molecule?
A: The EC50 was less than 3000 nM.

Q: Which results are given for `C#C[C@]1(O)[C@H](n2cc(C(N)=O)c3c(N)ncnc32)O[C@](F)(COP(=O)(O)OP(=O)(O)OP(=O)(O)O)[C@H]1O` [Compound 50]?
A: IC50 [3]: < 3 µM; IC50 (Dengue viral polymerase): < 3 µM; IC50 (NS5B-BK (Delta-21)): 3 to 30 µM

Q: `C#C[C@]1(O)[C@H](n2cc(F)c3c(N)ncnc32)O[C@](F)(COP(=O)(O)OP(=O)(O)OP(=O)(O)O)[C@H]1O` [Compound 51] was tested. Which IC50 [3] did it give?
A: The IC50 was less than 3 µM.

Q: And the IC50 (Dengue viral polymerase)?
A: The IC50 was less than 3 µM.

Q: What about the IC50 (NS5B-BK (Delta-21)) of the same molecule?
A: Its IC50 is less than 3 µM.

Q: How did the IC50 [3] turn out when `C#C[C@@]1(O)[C@H](O)[C@@H](COP(=O)(O)OP(=O)(O)OP(=O)(O)O)O[C@H]1c1ccc2c(N)ncnn12` [Compound 52] was run?
A: The IC50 was less than 3 µM.

Q: And the IC50 (Dengue viral polymerase)?
A: Its IC50 is less than 3 µM.

Q: And the IC50 (NS5B-BK (Delta-21))?
A: The IC50 was less than 3 µM.

Q: What does the source list for `C#C[C@@]1(O)[C@H](O)[C@@H](COP(=O)(O)OP(=O)(O)OP(=O)(O)O)O[C@H]1c1cnc2c(N)ncnn12` [Compound 53]?
A: IC50 [3]: < 3 µM; IC50 (Dengue viral polymerase): 3 to 30 µM; IC50 (NS5B-BK (Delta-21)): < 3 µM

Q: Which IC50 [3] does the source give for `C#C[C@@]1(F)[C@H](O)[C@@H](COP(=O)(O)OP(=O)(O)OP(=O)(O)O)O[C@H]1c1cnc2c(N)ncnn12` [Compound 54] here?
A: Its IC50 is 30 to 100 µM.

Q: What about the IC50 (Dengue viral polymerase) of the same molecule?
A: The IC50 was 30 to 100 µM.

Q: What about the IC50 (NS5B-BK (Delta-21)) of the same molecule?
A: The IC50 was less than 3 µM.

Q: With `C#C[C@]1(O)[C@H](n2cnc3c(=O)[nH]cnc32)O[C@](F)(COP(=O)(O)OP(=O)(O)OP(=O)(O)O)[C@H]1O` [Compound 56] as the molecule, how does the IC50 [3] read?
A: Its IC50 is less than 3 µM.

Q: And the IC50 (Dengue viral polymerase)?
A: The IC50 was 3 to 30 µM.

Q: What about the IC50 (NS5B-BK (Delta-21)) of the same molecule?
A: The IC50 was less than 3 µM.

Q: Which results are given for `C#C[C@]1(O)[C@H](n2cnc3c(N)nc(F)nc32)O[C@](F)(COP(=O)(O)OP(=O)(O)OP(=O)(O)O)[C@H]1O` [Compound 57]?
A: IC50 [3]: < 3 µM; IC50 (Dengue viral polymerase): < 3 µM; IC50 (NS5B-BK (Delta-21)): < 3 µM

Q: Which results are given for `C#C[C@@]1(O)[C@H](O)[C@@H](COP(=O)(O)OP(=O)(O)OP(=O)(O)O)O[C@H]1n1cc(F)c2c(N)ncnc21` [Compound 58]?
A: IC50 [3]: < 3 µM; IC50 (Dengue viral polymerase): < 3 µM; IC50 (NS5B-BK (Delta-21)): < 3 µM
